Counter-ions that a name gives are not always drawn.
These compounds were tested against MYT1 protein (Homo sapiens (Human), UniProt Q99640) (assay: Test for binding to ATP binding site of MYT1 (Kinase Tracer 178 / Eu-Anti-GST antibody TR-FRET)). Conditions: ATP binding site of MYT1, 30 minutes at room temperature.
Sequence of MYT1 protein (Q99640 whole entry): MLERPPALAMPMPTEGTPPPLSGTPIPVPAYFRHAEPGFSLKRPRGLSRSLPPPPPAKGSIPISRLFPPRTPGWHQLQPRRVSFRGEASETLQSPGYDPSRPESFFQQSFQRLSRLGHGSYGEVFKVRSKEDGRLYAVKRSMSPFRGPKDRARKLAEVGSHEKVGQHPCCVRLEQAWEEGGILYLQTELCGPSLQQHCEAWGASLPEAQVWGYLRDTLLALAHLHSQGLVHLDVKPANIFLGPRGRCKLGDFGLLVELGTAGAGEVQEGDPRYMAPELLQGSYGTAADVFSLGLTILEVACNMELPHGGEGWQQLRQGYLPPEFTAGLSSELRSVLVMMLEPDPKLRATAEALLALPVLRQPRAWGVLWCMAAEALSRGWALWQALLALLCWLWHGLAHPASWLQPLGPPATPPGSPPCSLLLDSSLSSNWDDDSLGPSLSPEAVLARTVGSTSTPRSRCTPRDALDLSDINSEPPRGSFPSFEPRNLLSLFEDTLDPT

First: Nc1c(-c2ccc(F)c3[nH]ncc23)c2cc(C3CNC3)c3ncccc3c2[nH]c1=O [Compound C132, 3-Amino-6-(azetidin-3-yl)-4-(7-fluoro-1H-indazol-4-yl)-1H-1,7-phenanthrolin-2-one; formate]
Second: Nc1c(-c2ccc(F)c3[nH]ncc23)c2cc(C3CCNCC3)c3ncccc3c2[nH]c1=O [Compound C133, 3-Amino-4-(7-fluoro-1H-indazol-4-yl)-6-piperidin-4-yl-1H-1,7-phenanthrolin-2-one; hydrochloride]
The IC50 of the first is 6.5-fold higher: 11 nM for the first, 1.7 nM for the second.

Going from `CC1(c2cc3c(-c4ccc(F)c5[nH]ncc45)c(N)c(=O)[nH]c3c3cccnc23)CC1` [Compound C142, 3-Amino-4-(7-fluoro-1H-indazol-4-yl)-6-(1-methylcyclopropyl)-1H-1,7-phenanthrolin-2-one] to `CC1(C)CC(c2cc3c(-c4ccc(F)c5[nH]ncc45)c(N)c(=O)[nH]c3c3cccnc23)C1` [Compound C167, 3-Amino-6-(3,3-dimethylcyclobutyl)-4-(7-fluoro-1H-indazol-4-yl)-1H-1,7-phenanthrolin-2-one], the IC50 rises from 18 nM to 46 nM (2.6-fold).

First: Nc1c(-c2ccc(F)c3[nH]ncc23)c2cc(C3CC3(F)F)c3ncccc3c2[nH]c1=O (stereo not shown) [Compound C145, 3-Amino-6-(2,2-difluorocyclopropyl)-4-(7-fluoro-1H-indazol-4-yl)-1H-1,7-phenanthrolin-2-one]
Second: Nc1c(-c2ccc(F)c3[nH]ncc23)c2cc(C3CC(F)(F)C3)c3ncccc3c2[nH]c1=O [Compound C164, 3-Amino-6-(3,3-difluorocyclobutyl)-4-(7-fluoro-1H-indazol-4-yl)-1H-1,7-phenanthrolin-2-one]
The IC50 of the first is 2.8-fold lower: 3.1 nM for the first, 8.6 nM for the second. The first is the more potent here.

Going from `Nc1c(-c2ccc(Cl)c3[nH]ncc23)c2cc(C3CCC3)c3ncccc3c2[nH]c1=O` [Compound C147, 3-Amino-4-(7-chloro-1H-indazol-4-yl)-6-cyclobutyl-1H-1,7-phenanthrolin-2-one] to `Nc1c(-c2ccc(Cl)c3[nH]ncc23)c2cc(C3CCCC3)c3ncccc3c2[nH]c1=O` [Compound C151, 3-Amino-4-(7-chloro-1H-indazol-4-yl)-6-cyclopentyl-1H-1,7-phenanthrolin-2-one], the IC50 rises from 5.2 nM to 10 nM (1.9-fold).

First: N#Cc1cc2c(-c3ccc(Cl)c4[nH]ncc34)c(N)c(=O)[nH]c2c2cccnc12 [Compound C148, 3-Amino-4-(7-chloro-1H-indazol-4-yl)-2-oxo-1H-1,7-phenanthroline-6-carbonitrile]
Second: N#Cc1cc2c(-c3ccc(C#N)c4[nH]ncc34)c(N)c(=O)[nH]c2c2cccnc12 [Compound C149, 3-Amino-4-(7-cyano-1H-indazol-4-yl)-2-oxo-1H-1,7-phenanthroline-6-carbonitrile]
The IC50 of the first is 93-fold lower: 4.1 nM for the first, 380 nM for the second.

First: CCc1cc2c(-c3ccc(Cl)c4[nH]ncc34)c(N)c(=O)[nH]c2c2cccnc12 [Compound C150, 3-Amino-4-(7-chloro-1H-indazol-4-yl)-6-ethyl-1H-1,7-phenanthrolin-2-one]
Second: Cc1cc2c(-c3ccc(Cl)c4[nH]ncc34)c(N)c(=O)[nH]c2c2cccnc12 [Compound C152, 3-Amino-4-(7-chloro-1H-indazol-4-yl)-6-methyl-1H-1,7-phenanthrolin-2-one]
The IC50 of the first is 2.1-fold lower: 1.9 nM for the first, 4 nM for the second. The first is the more potent here.

Going from `Cc1cc2c(-c3ccc(C)c4[nH]ncc34)c(N)c(=O)[nH]c2c2cccnc12` [Compound C153, 3-Amino-6-methyl-4-(7-methyl-1H-indazol-4-yl)-1H-1,7-phenanthrolin-2-one] to `Nc1c(-c2ccc(F)c3[nH]ncc23)c2cc(C(F)(F)F)c3ncccc3c2[nH]c1=O` [Compound C187, 3-Amino-4-(7-fluoro-1H-indazol-4-yl)-6-(trifluoromethyl)-1H-1,7-phenanthrolin-2-one], the IC50 rises from 4.4 nM to 20 nM (4.5-fold). The first is the more potent here.

`Nc1c(-c2c(F)ccc3[nH]ncc23)c2cc(Br)c3ncccc3c2[nH]c1=O` [Compound C154, 3-Amino-6-bromo-4-(5-fluoro-1H-indazol-4-yl)-1H-1,7-phenanthrolin-2-one] and `Nc1c(-c2ccc(F)c3[nH]ncc23)c2cc(CC(F)F)c3ncccc3c2[nH]c1=O` [Compound C170, 3-Amino-6-(2,2-difluoroethyl)-4-(7-fluoro-1H-indazol-4-yl)-1H-1,7-phenanthrolin-2-one] are the same in IC50: 3.3 nM for the first, 3.3 nM for the second.

Compared with `Nc1c(-c2ccc(F)c3[nH]ncc23)c2cc(C3CCOC3)c3ncccc3c2[nH]c1=O` (stereo not shown) [Compound C159, 3-Amino-4-(7-fluoro-1H-indazol-4-yl)-6-(oxolan-3-yl)-1H-1,7-phenanthrolin-2-one], `Nc1c(-c2ccc(F)c3[nH]ncc23)c2cc(C3CC4(CC4)C3)c3ncccc3c2[nH]c1=O` [Compound C175, 3-Amino-4-(7-fluoro-1H-indazol-4-yl)-6-spiro[2.3]hexan-5-yl-1H-1,7-phenanthrolin-2-one] is 7-fold higher in IC50: 2.3 nM for the first, 16 nM for the second.

`Nc1c(-c2ccc(F)c3[nH]ncc23)c2cc(CCCF)c3ncccc3c2[nH]c1=O` [Compound C160, 3-Amino-4-(7-fluoro-1H-indazol-4-yl)-6-(3-fluoropropyl)-1H-1,7-phenanthrolin-2-one] and `Nc1c(-c2ccc(F)c3[nH]ncc23)c2cc(CCC(F)F)c3ncccc3c2[nH]c1=O` [Compound C171, 3-Amino-6-(3,3-difluoropropyl)-4-(7-fluoro-1H-indazol-4-yl)-1H-1,7-phenanthrolin-2-one] are within 1.5-fold of each other in IC50: 2.5 nM for the first, 2.2 nM for the second.

`Nc1c(-c2ccc(F)c3[nH]ncc23)c2cc(CCC(F)(F)F)c3ncccc3c2[nH]c1=O` [Compound C161, 3-Amino-4-(7-fluoro-1H-indazol-4-yl)-6-(3,3,3-trifluoropropyl)-1H-1,7-phenanthrolin-2-one] and `Nc1c(-c2ccc(F)c3[nH]ncc23)c2cc(CC(F)(F)F)c3ncccc3c2[nH]c1=O` [Compound C165, 3-Amino-4-(7-fluoro-1H-indazol-4-yl)-6-(2,2,2-trifluoroethyl)-1H-1,7-phenanthrolin-2-one] are within 1.5-fold of each other in IC50: 8.6 nM for the first, 7.1 nM for the second.

Compared with `Nc1c(-c2ccc(F)c3[nH]ncc23)c2cc(C3CCC(F)(F)C3)c3ncccc3c2[nH]c1=O` (stereo not shown) [Compound C162, 3-Amino-6-(3,3-difluorocyclopentyl)-4-(7-fluoro-1H-indazol-4-yl)-1H-1,7-phenanthrolin-2-one], `Nc1c(-c2ccc(F)c3[nH]ncc23)c2cc(C3CCC(F)(F)CC3)c3ncccc3c2[nH]c1=O` [Compound C163, 3-Amino-6-(4,4-difluorocyclohexyl)-4-(7-fluoro-1H-indazol-4-yl)-1H-1,7-phenanthrolin-2-one] is 2-fold higher in IC50: 12 nM for the first, 24 nM for the second. The first is the more potent here.

Compared with `Nc1c(-c2ccc(F)c3[nH]ncc23)c2cc(C3CC4(C3)CC(F)(F)C4)c3ncccc3c2[nH]c1=O` [Compound C166, 3-Amino-6-(2,2-difluorospiro[3,3]heptan-6-yl)-4-(7-fluoro-1H-indazol-4-yl)-1H-1,7-phenanthrolin-2-one], `CC1(C)CC2(CC(c3cc4c(-c5ccc(F)c6[nH]ncc56)c(N)c(=O)[nH]c4c4cccnc34)C2)C1` [Compound C174, 3-Amino-6-(2,2-dimethylspiro[3,3]heptan-6-yl)-4-(7-fluoro-1H-indazol-4-yl)-1H-1,7-one] is 48-fold higher in IC50: 2.9 nM for the first, 140 nM for the second.

First: CC(c1cc2c(-c3ccc(F)c4[nH]ncc34)c(N)c(=O)[nH]c2c2cccnc12)C(F)(F)F (stereo not shown) [Compound C168, 3-Amino-4-(7-fluoro-1H-indazol-4-yl)-6-(1,1,1-trifluoropropan-2-yl)-1H-1,7-phenanthrolin-2-one]
Second: CC(C)(C)C1CC(c2cc3c(-c4ccc(F)c5[nH]ncc45)c(N)c(=O)[nH]c3c3cccnc23)C1 (stereo not shown) [Compound C173, 3-Amino-6-(3-tert-butylcyclobutyl)-4-(7-fluoro-1H-indazol-4-yl)-1H-1,7-phenanthrolin-2-one]
The IC50 of the first is 1.8-fold lower: 54 nM for the first, 95 nM for the second. The first is the more potent here.

Going from `Nc1c(-c2ccc(F)c3[nH]ncc23)c2cc(C3CC4(CCC4)C3)c3ncccc3c2[nH]c1=O` [Compound C169, 3-Amino-4-(7-fluoro-1H-indazol-4-yl)-6-spiro[3,3]heptan-2-yl-1H-1,7-phenanthrolin-2-one] to `N#CC1CC(c2cc3c(-c4ccc(F)c5[nH]ncc45)c(N)c(=O)[nH]c3c3cccnc23)C1` (stereo not shown) [Compound C176, 3-[3-Amino-4-(7-fluoro-1H-indazol-4-yl)-2-oxo-1H-1,7-phenanthrolin-6-yl]cyclobutane-1-carbonitrile], the IC50 falls from 86 nM to 2.1 nM (41-fold). The second is the more potent here.

`N#CC1(Cc2cc3c(-c4ccc(F)c5[nH]ncc45)c(N)c(=O)[nH]c3c3cccnc23)CC1` [Compound C177, 1-[[3-Amino-4-(7-fluoro-1H-indazol-4-yl)-2-oxo-1H-1,7-phenanthrolin-6-yl]methyl]cyclopropane-1-carbonitrile] and `N#C[C@H]1C[C@@H](c2cc3c(-c4ccc(F)c5[nH]ncc45)c(N)c(=O)[nH]c3c3cccnc32)C1` [Compound C178, (1s,3s)-3-[3-Amino-4-(7-fluoro-1H-indazol-4-yl)-2-oxo-1H-1,7-phenanthrolin-6-yl]cyclobutane-1-carbonitrile] are within 1.5-fold of each other in IC50: 2.1 nM for the first, 2.3 nM for the second.

Going from `N#C[C@H]1C[C@H](c2cc3c(-c4ccc(F)c5[nH]ncc45)c(N)c(=O)[nH]c3c3cccnc32)C1` [Compound C179, (1r,3r)-3-[3-Amino-4-(7-fluoro-1H-indazol-4-yl)-2-oxo-1H-1,7-phenanthrolin-6-yl]cyclobutane-1-carbonitrile] to `Cc1ccc2c(n1)c(C1CC1)cc1c(-c3ccc(F)c4[nH]ncc34)c(N)c(=O)[nH]c12` [Compound C182, 3-Amino-6-cyclopropyl-4-(7-fluoro-1H-indazol-4-yl)-8-methyl-1H-1,7-phenanthrolin-2-one], the IC50 rises from 0.84 nM to 5.5 nM (6.5-fold).

Going from `CC(C)(C)c1ccc2c(ccc3c(-c4ccc(F)c5[nH]ncc45)c(N)c(=O)[nH]c32)n1` [Compound C180, 3-Amino-8-tert-butyl-4-(7-fluoro-1H-indazol-4-yl)-1H-1,7-phenanthrolin-2-one] to `Cc1ccc2c(ccc3c(-c4ccc(F)c5[nH]ncc45)c(N)c(=O)[nH]c32)n1` [Compound C183, 3-Amino-4-(7-fluoro-1H-indazol-4-yl)-8-methyl-1H-1,7-phenanthrolin-2-one], the IC50 rises from 41 nM to 110 nM (2.7-fold). The first is the more potent here.

In the case of `Cc1ccc2c(n1)c(I)cc1c(-c3ccc(F)c4[nH]ncc34)c(N)c(=O)[nH]c12` [Compound C181, 3-Amino-4-(7-fluoro-1H-indazol-4-yl)-6-iodo-8-methyl-1H-1,7-phenanthrolin-2-one], the IC50 is reported as 23 nM.

From patent US20260062412A1, “NITROGEN-CONTAINING HETEROCYCLIC COMPOUND HAVING MYT1 INHIBITORY ACTIVITY” (CHUGAI SEIYAKU KABUSHIKI KAISHA, priority 2023, published 2026)
